Results on three molecules are retold here after ChEMBL document CHEMBL1201862, “PubChem BioAssay data set” (2004).

The source made the active and inactive calls.

In general, EC50 refers to the concentration giving half of the maximal effect. In general, IC50 refers to the concentration needed to halve the response being measured. In general, AC50 refers to the concentration giving half of the maximal activity seen.

For assay [1], the target named is T1, Insulin-degrading enzyme (Homo sapiens, UniProt P14735).
T1 sequence (P14735 whole entry): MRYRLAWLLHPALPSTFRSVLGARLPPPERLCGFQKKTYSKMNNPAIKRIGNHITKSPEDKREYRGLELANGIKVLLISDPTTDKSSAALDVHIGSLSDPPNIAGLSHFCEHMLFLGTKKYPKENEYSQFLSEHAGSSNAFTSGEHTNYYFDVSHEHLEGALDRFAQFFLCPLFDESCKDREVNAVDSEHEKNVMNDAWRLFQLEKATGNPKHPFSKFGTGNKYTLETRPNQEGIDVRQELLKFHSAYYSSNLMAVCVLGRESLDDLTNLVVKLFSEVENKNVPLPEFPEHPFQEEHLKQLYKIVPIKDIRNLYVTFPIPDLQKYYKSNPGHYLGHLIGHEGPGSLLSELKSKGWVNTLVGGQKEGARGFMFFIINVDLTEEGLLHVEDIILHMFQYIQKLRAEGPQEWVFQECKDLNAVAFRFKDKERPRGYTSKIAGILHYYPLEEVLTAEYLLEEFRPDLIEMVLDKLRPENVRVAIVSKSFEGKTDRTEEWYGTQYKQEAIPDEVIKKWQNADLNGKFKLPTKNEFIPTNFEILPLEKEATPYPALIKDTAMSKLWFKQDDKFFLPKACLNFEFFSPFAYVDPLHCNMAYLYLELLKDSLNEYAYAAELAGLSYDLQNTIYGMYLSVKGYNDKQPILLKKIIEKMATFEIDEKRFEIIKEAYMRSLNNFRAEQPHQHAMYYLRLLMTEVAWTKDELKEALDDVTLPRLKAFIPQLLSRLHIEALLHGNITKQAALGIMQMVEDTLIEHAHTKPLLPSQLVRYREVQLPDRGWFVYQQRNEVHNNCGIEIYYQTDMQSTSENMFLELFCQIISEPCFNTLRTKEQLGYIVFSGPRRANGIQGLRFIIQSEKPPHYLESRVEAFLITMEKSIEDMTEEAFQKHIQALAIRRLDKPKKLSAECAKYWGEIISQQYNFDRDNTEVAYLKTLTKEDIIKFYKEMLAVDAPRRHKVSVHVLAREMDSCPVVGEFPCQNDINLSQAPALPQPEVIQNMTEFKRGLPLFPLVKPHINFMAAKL
Kind of assay: activators of recombinant IDE enzyme, dose response, counter-screen for IDE activator project, biochemical, fluorescence polarization (AID 588681). A general note: Counterscreens check selectivity or assay interference.

For assay [2], the target named is T1, Insulin-degrading enzyme. Kind of assay: activators of endogenous IDE in HEK cells, dose response, cell-based, fluorescence polarization (AID 588439). The assay is classed as functional. Background: Polarisation of emitted light reports the rotation of a fluorescent probe.
For assay [3], the system named is HEK293. Kind of assay: optical interference in Abeta FP readout, dose response, artefact control for IDE activator project, biochemical, fluorescence polarization (AID 588442). The note with it: Homo sapiens. The assay is classed as functional, cell-based.
The test system of assay [4] is HEK293. Kind of assay: HEK cell cytotoxicity by LDH release, dose response, cytotoxicity control for IDE activator project, fluorescence, HEK cells (AID 588440).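 Also: cytotoxicity by LDH release measuring loss of membrane integrity.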 The class given is functional, cell-based. The note with it: Homo sapiens. (LDH leaks from cells whose membrane has failed.)
For assay [5], the target named is Neurotensin receptor type 1 (Homo sapiens, UniProt P30989). The assay is classed as functional.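 Also: Image-based confirmatory dose-response assay measuring agonist activity at NTR1; NTR1-expressing U2OS osteosarcoma cells imaged for beta-arrestin GFP spot formation; agonist potency where compounds increase beta-arrestin recruitment.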
Chain of Neurotensin receptor type 1 (P30989 whole entry): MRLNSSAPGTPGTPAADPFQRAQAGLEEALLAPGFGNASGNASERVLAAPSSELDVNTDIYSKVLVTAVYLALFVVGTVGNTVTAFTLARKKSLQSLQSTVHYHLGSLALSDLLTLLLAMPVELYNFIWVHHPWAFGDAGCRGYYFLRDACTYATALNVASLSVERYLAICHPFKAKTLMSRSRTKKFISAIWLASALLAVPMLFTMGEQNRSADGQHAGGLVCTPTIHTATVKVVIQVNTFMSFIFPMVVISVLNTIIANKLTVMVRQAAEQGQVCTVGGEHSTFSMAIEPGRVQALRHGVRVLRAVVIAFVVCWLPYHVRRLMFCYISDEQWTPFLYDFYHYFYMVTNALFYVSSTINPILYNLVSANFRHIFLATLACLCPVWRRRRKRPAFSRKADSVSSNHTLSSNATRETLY
Assay [6] in a line: viability loss in Mcl1-dependent HMC-1-8 cells, dose response, selectivity assay for A1 inhibitor project, cell-based, luminescence, dry powder (AID 504415). The assay is classed as functional. The following applies: Homo sapiens.
Assay [7] can be described thus: HepG2 cell cytotoxicity, dose response, cytotoxicity control, ATP luminescence, cherry-pick, activator set 2 (AID 1053143). The class given is functional, cell-based.
Assay [8] in a line: Luminescence Cell-Based Dose Retest to Confirm Inhibitors of Cancer Stem Cells. [Related pubchem assays (depositor defined):AID2717, AID2721]. The assay is classed as functional. The following applies: Homo sapiens.
The target in assay [9] is T2, Replicative DNA helicase DnaB (Mycobacterium tuberculosis, UniProt P9WMR3).
T2 sequence (P9WMR3 whole entry): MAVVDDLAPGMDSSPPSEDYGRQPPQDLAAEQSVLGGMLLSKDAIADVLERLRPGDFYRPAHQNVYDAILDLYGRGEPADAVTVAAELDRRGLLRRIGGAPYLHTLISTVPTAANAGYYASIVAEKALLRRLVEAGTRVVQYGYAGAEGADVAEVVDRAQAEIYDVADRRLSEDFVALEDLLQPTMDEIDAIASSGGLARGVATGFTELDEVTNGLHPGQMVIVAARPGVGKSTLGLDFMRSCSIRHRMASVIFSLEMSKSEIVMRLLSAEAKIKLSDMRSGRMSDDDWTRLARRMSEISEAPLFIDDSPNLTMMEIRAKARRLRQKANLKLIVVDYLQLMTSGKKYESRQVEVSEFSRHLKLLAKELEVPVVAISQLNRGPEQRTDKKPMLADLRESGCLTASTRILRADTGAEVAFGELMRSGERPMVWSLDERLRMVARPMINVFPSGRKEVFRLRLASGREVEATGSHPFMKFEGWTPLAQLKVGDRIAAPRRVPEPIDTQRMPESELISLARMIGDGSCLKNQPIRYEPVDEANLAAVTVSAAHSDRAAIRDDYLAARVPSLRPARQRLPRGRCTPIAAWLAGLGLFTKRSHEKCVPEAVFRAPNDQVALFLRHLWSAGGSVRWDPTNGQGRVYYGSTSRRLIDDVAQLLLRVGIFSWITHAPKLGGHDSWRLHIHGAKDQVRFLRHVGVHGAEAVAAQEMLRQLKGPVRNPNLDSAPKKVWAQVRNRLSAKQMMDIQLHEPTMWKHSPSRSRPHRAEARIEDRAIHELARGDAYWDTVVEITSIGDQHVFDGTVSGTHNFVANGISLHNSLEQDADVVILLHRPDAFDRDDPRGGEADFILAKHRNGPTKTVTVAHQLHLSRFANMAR
Kind of assay: DnaB intein splicing inhibitors, dose response, biochemical, cell-free fluorescence (AID 449749). The class given is functional.

A short description of assay [10]: Luminescence Cell-Based Dose Response HTS to Identify Activators of Luciferase Translation or Activity in H4 […] Cells. [Related pubchem assays: 1829 (Project Summary), 1814 (Primary HTS)]. The assay is classed as functional.
The nature of assay [11]: reduction of endogenous Shn3 mRNA, dose response, qPCR, Clone20 cells, cherry-pick (AID 743415). The assay is classed as functional, cell-based.
Assay [12] deals with BJ. Kind of assay: cytotoxicity toward BJ-TERT fibroblasts, dose response, cell-based, RAS-independent, luminescence (AID 1933). The class given is functional. The following applies: Homo sapiens.
For assay [13], the target named is T3, Beta Lactamase (Pseudomonas aeruginosa, UniProt Q932Y6). Kind of assay: beta-lactamase reporter inhibitor potency, dose response, artefact control for NOD2-RIPK2 interaction inhibitor project, BLA reporter cells, FRET fluorescence (AID 651552). The class given is functional, cell-based.
T3 sequence (Q932Y6 whole entry, the tested form may be a part): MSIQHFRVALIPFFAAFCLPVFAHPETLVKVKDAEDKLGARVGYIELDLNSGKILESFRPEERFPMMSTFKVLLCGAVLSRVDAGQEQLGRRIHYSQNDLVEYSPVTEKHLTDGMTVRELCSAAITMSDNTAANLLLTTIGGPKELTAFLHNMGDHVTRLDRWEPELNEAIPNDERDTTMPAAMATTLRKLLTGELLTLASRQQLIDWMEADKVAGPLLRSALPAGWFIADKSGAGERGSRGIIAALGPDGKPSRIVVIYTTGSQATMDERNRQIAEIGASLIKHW
In assay [14] the test system is CHO. Kind of assay: cytotoxicity in TLR9-MyD88 CHO cells, dose response, cytotoxicity control for TLR9-MyD88 binding inhibitor project, cell-based, luminescence (AID 588339).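 Also: CHO cells stably coexpressing TLR9 and MyD88 fusions from primary screen; compound exposure lasted 48 hours before viability readout.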 The class given is functional, hamster. The following applies: Cricetulus griseus.
The subject of assay [15] is BJ. The assay is described as follows: cytotoxicity toward Ras-transformed BJeLR fibroblasts, dose response, cell-based, alamar blue fluorescence, cherrypicked samples (AID 2631).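 Also: confirmatory dose-response assay in RAS-dependent BJ fibroblasts engineered with TERT, LT and ST, with cytotoxicity read by fluorescence.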 The assay is classed as functional. The following applies: Homo sapiens.
In assay [16] the test system is BJ. The assay is described as follows: cytotoxicity toward BJ-TERT-LT-ST fibroblasts, dose response, cell-based, RAS-independent, luminescence (AID 1935).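 Also: BJ fibroblasts immortalized with TERT plus LT and ST oncogenes.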 The note with it: Homo sapiens. The assay is classed as functional.
A short description of assay [17]: Luminescence Cell-Based Dose Confirmation HTS to Identify Activators of 5'UTR Stem-Loop Driven Alpha-Synuclein mRNA Translation in H4 Neuroglioblastoma Cells. [Related pubchem assays: 1829 (Project Summary), 1814 (Primary HTS)]. The class given is functional.
Assay [18] concerns H4. The assay is described as follows: Luminescence Cell-Based Dose Response HTS to Identify Activators of 5'UTR Stem-Loop Driven Prion Protein mRNA Translation in H4 Neuroglioblastoma Cells. [Related pubchem assays: 1829 (Project Summary), 1814 (Primary HTS)]. The class given is functional. The note with it: Homo sapiens.
Assay [19] concerns the target T4, Protein RecA (Mycobacterium tuberculosis, UniProt P9WHJ3).
T4 sequence (P9WHJ3 whole entry): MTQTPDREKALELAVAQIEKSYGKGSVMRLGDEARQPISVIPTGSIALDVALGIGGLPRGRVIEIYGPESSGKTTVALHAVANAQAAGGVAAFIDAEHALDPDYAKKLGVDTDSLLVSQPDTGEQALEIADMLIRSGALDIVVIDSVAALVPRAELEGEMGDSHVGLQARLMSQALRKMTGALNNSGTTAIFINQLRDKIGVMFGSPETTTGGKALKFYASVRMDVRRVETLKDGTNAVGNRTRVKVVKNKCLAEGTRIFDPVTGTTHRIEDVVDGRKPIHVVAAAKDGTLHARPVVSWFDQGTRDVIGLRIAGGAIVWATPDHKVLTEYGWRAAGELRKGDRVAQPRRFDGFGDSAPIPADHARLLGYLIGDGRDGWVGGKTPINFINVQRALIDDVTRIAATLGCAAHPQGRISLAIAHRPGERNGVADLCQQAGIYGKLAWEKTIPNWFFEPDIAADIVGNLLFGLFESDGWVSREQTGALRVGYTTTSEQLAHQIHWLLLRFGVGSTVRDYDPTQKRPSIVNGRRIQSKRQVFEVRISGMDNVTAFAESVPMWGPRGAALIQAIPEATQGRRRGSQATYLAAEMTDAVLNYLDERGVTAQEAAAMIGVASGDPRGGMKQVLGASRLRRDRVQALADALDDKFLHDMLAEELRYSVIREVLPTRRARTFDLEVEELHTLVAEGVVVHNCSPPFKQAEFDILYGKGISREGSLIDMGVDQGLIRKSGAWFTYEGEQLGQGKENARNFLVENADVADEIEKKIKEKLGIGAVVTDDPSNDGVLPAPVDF
The assay is described as follows: Fluorescence Cell-Free Homogeneous Dose Retest to Identify Inhibitors of RecA-Intein Splicing Activity. [Related pubchem assays (depositor defined):AID2097, AID2223, AID489010, AID492950]. The class given is functional.

Assay [20] can be described thus: Fluorescence-based cell-based high throughput dose response assay for inhibitors of the interaction of nucleotide-binding oligomerization domain containing 2 (NOD2) and the receptor-interacting serine-threonine kinase 2 (RIPK2). The class given is functional. The following applies: Homo sapiens.
Assay [21] is described as follows: reduction of Shn3 3'UTR firefly luciferase signal, dose response, Schnurri-3 inhibitor project, cell-based, Clone20 osteoblasts, cherry-pick, set 2 (AID 720490).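 Also: actives lower the luminescence signal as inhibitors.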 The assay is classed as functional.
The nature of assay [22]: cytotoxicity toward DRD oncogenic fibroblasts, dose response, cell-based, non-viral oncogenic, luminescence (AID 1934). The class given is functional. The following applies: Homo sapiens.
A short description of assay [23]: inhibitors of control Renilla luciferase reporter, dose response, counter-screen for Shn3 3'UTR targeting project, Clone20-Shn3RL cells, dual-Glo, cherry-pick, set 2 (AID 720724). The assay is classed as functional, cell-based. The note with it: Dual-Go Shn3RL.
The nature of assay [24]: control 3'UTR Renilla luciferase suppression, dose response, counter-screen for Shn3 inhibitor project, cell-based, Clone20-Shn3RL, cherry-picked (AID 624133). The assay is classed as functional.
A short description of assay [25]: Shn3 3'UTR reporter inhibitors, dose response, cell-based, Clone20 osteoblasts, firefly luciferase, cherry-picked (AID 624132).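 Also: firefly luciferase luminescence from reporter carrying the Shn3 3'UTR in osteoblasts.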 The assay is classed as functional.
The test system of assay [26] is BJ. The assay is described as follows: cells. The class given is functional, cell-based. The note with it: Homo sapiens.
Assay [27] can be described thus: HepG2 cell cytotoxicity, dose response, cytotoxicity control for Shn3 inhibitor project, CellTiter-Glo, cherry-picked (AID 624134). The assay is classed as functional, cell-based.
Assay [28] is described as follows: cytotoxicity in HEK-293T cells, dose response, cytotoxicity control for TCR NF-kB inhibitor project, luminescence, T-cell screen hits (AID 489026).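 Also: cells exposed to compound about 14 hours before the viability readout.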 The assay is classed as functional, cell-based.
The target of assay [29] is T3, Beta Lactamase. The assay is described as follows: beta-lactamase reporter inhibitor potency, dose response, artefact control for TLR9-MyD88 binding inhibitor project, BLA reporter cells, FRET fluorescence (AID 588341).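 Also: cell based assay in CHO-K1 cells stably expressing beta-lactamase.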 The assay is classed as cell-based.

In the case of `CCN(CC(=O)Nc1ccc(NC(C)=O)cc1)C(=O)c1cc(CN2C(=O)c3ccccc3C2=O)ccc1OC`, the EC50 in [1], in assay [2] and in [3] was > 54.7 µM (inactive) in each case. The IC50 in assay [4] was > 89.2 µM (inactive).
For the molecule `Cc1ccc(Sc2c([N+](=O)[O-])c(=O)n(C)c3ccccc23)cc1`, the EC50 in assay [5] is 26 µM (inactive). The AC50 in assay [6] is 19.3 µM (active); in [7], 26 µM (active); in assay [8], 3.18 µM (active).
Consider `CCOC(=O)C1CCN(S(=O)(=O)c2c(Cl)ccc3nonc23)CC1`, for which the AC50 in assay [9] is 5.07 µM (active); in assay [11], 3.36 µM (active); in assay [21], 1.97 µM (active); in assay [23], 1.77 µM (active); in [24], 4.78 µM (active); in assay [25], 0.919 µM (active). Moreover, in assay [27], the AC50 was 12.2 µM (active). For the same molecule, the EC50 in assay [10] is > 120 µM (not active); in [12], 2.73 µM (inconclusive); in assay [15] it was 0.318 µM (active); in assay [16], 2.84 µM (inconclusive); in assay [17], > 120 µM (not active); in [18], > 120 µM (not active). For the same molecule, the EC50 was 14.4 µM (active) in assay [19], 2.75 µM (active) in [22] and 6.08 µM (inconclusive) in [26]. Besides, the IC50 in [13] was 26.8 µM (inactive); in assay [14] it was 2.42 µM (active); in assay [20], 1.12 µM (active); in assay [28] it was > 80 µM (inactive); in assay [29] it was 21.2 µM (inactive).
